Entries after “also recorded” stand apart in the source; their conditions may differ. Like-named read-outs stand apart in the source and are kept apart here.
Tests used:
porcine pepsin [1] = biological target: T1, porcine pepsin (Sus scrofa, UniProt P00791); assay: Kinetic inhibition of pepsin; assay type: biochemical; settings: for inhibition at 16 µM: pH 3, read-out: Inhibition of pepsin under the screening conditions; for Inhibition of pepsin under the screening conditions: 175 μM substrate, pH 3.0-3.2, 28 °C
T1 sequence (P00791 60-385): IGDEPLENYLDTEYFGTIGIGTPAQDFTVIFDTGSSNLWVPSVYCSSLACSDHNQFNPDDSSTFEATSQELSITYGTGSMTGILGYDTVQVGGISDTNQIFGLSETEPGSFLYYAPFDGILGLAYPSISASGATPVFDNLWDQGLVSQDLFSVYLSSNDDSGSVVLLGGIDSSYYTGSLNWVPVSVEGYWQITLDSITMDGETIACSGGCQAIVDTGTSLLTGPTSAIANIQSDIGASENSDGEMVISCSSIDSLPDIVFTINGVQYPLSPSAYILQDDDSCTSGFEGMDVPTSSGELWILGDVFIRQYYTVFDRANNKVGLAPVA

[2] = biological target: T2, mature HIV-1 protease (PR) (Human immunodeficiency virus type 1, UniProt P03367); settings: cited from earlier work; for Binding constant (Ka), PR / ΔH of binding, PR / −TΔS of binding, PR: ITC, pH 5; for Kd: read-out: KL at 25 °C PR (lit.), 25 °C
P. falciparum = settings: cited from earlier work
[3] = biological target: PRD29N (HIV-1 protease D29N mutant) (Human immunodeficiency virus type 1, UniProt P03367, D529N, form not given); settings: inhibitor 28 μM, pH 4.8-5.0; unliganded PRD29N 59.0
porcine pepsin [4] = biological target: T1, porcine pepsin; assay: DSC of pepsin with inhibitors; assay type: binding; settings: DSC pH 3; […] (APV) or 2-fold (Ac-PEP) molar excess; unliganded pepsin Tm 74.2
porcine pepsin [5] = biological target: T1, porcine pepsin; assay: ITC titration of pepsin with inhibitors; assay type: binding; settings: for binding constant (KL) from curve fitting of ITC data, pepsin / stoichiometry of binding to pepsin: 28 °C; for binding constant (KL) from curve fitting of ITC data, pepsin: 50 mM sodium formate pH 3; for stoichiometry of binding to pepsin: pH 3
[6] = biological target: T3, PRD25N (HIV-1 protease D25N mutant) (Human immunodeficiency virus type 1, UniProt P03367, D525N, form not given); assay: DSC thermal denaturation of PRD25N with inhibitors; assay type: binding; settings: inhibitor 28 μM, pH 4.8-5.0; unliganded PRD25N 58.4
[7] = tested on: PRD25N (HIV-1 protease D25N mutant); assay: DSC thermal denaturation of PRD25N with inhibitors; assay type: binding; settings: DSC
[8] = biological target: T3, PRD25N (HIV-1 protease D25N mutant); settings: cited from earlier work
[9] = biological target: T2, mature HIV-1 protease (PR); settings: cited from earlier work
[10] = Tm with inhibitor minus Tm without, twofold molar excess

Q: What does the source list for `CC(C)CN(C[C@@H](O)[C@H](Cc1ccccc1)NC(=O)O[C@H]1CCOC1)S(=O)(=O)c1ccc(N)cc1` [APV, Amprenavir]?
A: Ki (porcine pepsin [1]): 300 nM; inhibition at 16 µM (porcine pepsin [1]): 75 to 95%; Binding constant (Ka), PR [2]: (5.0 ± 0.3) × 10^9 M^−1; ΔH of binding, PR [2]: -6.9 kcal/mol; −TΔS of binding, PR [2]: -6.3 kcal/mol; growth of P. falciparum (P. falciparum): did not inhibit; Tm PRD29N [3]: 67.5 °C; ΔTm pepsin (porcine pepsin [4]): 2.7 °C; Kd (porcine pepsin [5]): 180 nM; binding constant (KL) from curve fitting of ITC data, pepsin (porcine pepsin [5]): (5.5 ± 0.5) × 10^6 M; stoichiometry of binding to pepsin (porcine pepsin [5]; ITC): 0.97 ± 0.004; Binding constant (Ka), pepsin (porcine pepsin [5]; ITC, pH 3, 28 °C): (5.45 ± 0.5) × 10^6 M^−1; ΔH of binding, pepsin (porcine pepsin [5]; ITC, pH 3, 28 °C): -4.2 ± 0.3 kcal/mol; −TΔS of binding, pepsin (porcine pepsin [5]; ITC, pH 3, 28 °C): -5.1 kcal/mol; Tm PRD25N [6]: 58.7 °C

Q: With `COC(=O)N[C@H](C(=O)N[C@@H](Cc1ccccc1)[C@@H](O)CN(Cc1ccc(-c2ccccn2)cc1)NC(=O)[C@@H](NC(=O)OC)C(C)(C)C)C(C)(C)C` [ATV, Atazanavir] as the compound, how does the “Inhibition of pepsin under the screening conditions” value (“Inhibition of pepsin” below) (porcine pepsin [1]; 16 μM inhibitor) read?
A: undetected; also recorded: no detectable inhibition; also recorded: did not inhibit

Q: And the Kd [2]?
A: 0.035 nM

Q: And the “Tm PRD29N” value [3]?
A: 71.7 °C

Q: What about the “Tm PRD25N” value [6] of the same compound?
A: 61.4 °C

Q: With `Cc1cccc(C)c1OCC(=O)N[C@@H](Cc1ccccc1)[C@@H](O)C[C@H](Cc1ccccc1)NC(=O)[C@H](C(C)C)N1CCCNC1=O` [LPV, Lopinavir] as the compound, how does the inhibition at 16 µM (porcine pepsin [1]) read?
A: ≤ 50%

Q: What does the source list for `CC(C)c1nc(CN(C)C(=O)N[C@H](C(=O)N[C@@H](Cc2ccccc2)C[C@H](O)[C@H](Cc2ccccc2)NC(=O)OCc2cncs2)C(C)C)cs1` [RTV, Ritonavir]?
A: inhibition at 16 µM (porcine pepsin [1]): 75 to 95%; Binding constant (Ka), PR [2]: (1.0 ± 0.1) × 10^10 M^−1; ΔH of binding, PR [2]: -4.3 kcal/mol; −TΔS of binding, PR [2]: -9.4 kcal/mol; Tm PRD29N [3]: 66.1 °C; Tm PRD25N [6]: 61.1 °C

Q: For `O=C1N(Cc2ccc(CO)cc2)[C@H](Cc2ccccc2)[C@H](O)[C@@H](O)[C@@H](Cc2ccccc2)N1Cc1ccc(CO)cc1` [DMP323], which “Inhibition of pepsin” value (porcine pepsin [1]; 24 μM inhibitor) is on record?
A: undetected

Q: What about the Kd [2] of the same compound?
A: 3.8 nM

Q: And the “Tm PRD29N” value [3]?
A: 69.2 °C

Q: What about the “Tm PRD25N” value [6] of the same compound?
A: 67.3 °C

Q: And the “ΔTm ratio ΔTm(PR)/ΔTm(PRD25N)” value [7]?
A: 1-2

Q: Which inhibition at 16 µM (porcine pepsin [1]) does the source give for `CC(C)(C)NC(=O)[C@@H]1C[C@@H]2CCCC[C@@H]2CN1C[C@@H](O)[C@H](Cc1ccccc1)NC(=O)[C@H](CC(N)=O)NC(=O)c1ccc2ccccc2n1` [SQV, Saquinavir] here?
A: ≤ 50%

Q: What about the “Tm PRD29N” value [3] of the same compound?
A: 72.3 °C

Q: What about the “Tm PRD25N” value [6] of the same compound?
A: 62.6 °C

Q: With acetyl pepstatin [Ac-PEP] as the compound, how does the Kd [2] read?
A: 440 nM

Q: And the “Tm PRD29N” value [3]?
A: 58.3 °C

Q: And the “Tm PRD25N” value [6]?
A: 58.8 °C

Q: Which inhibition at 16 µM (porcine pepsin [1]) does the source give for `Cc1c(O)cccc1C(=O)N[C@@H](CSc1ccccc1)[C@H](O)CN1C[C@H]2CCCC[C@H]2C[C@H]1C(=O)NC(C)(C)C` [NFV, Nelfinavir] here?
A: ≤ 50%

Q: What does the source list for `CC(C)CN(C[C@@H](O)[C@H](Cc1ccccc1)NC(=O)O[C@H]1CO[C@H]2OCC[C@H]21)S(=O)(=O)c1ccc(N)cc1` [DRV, Darunavir]?
A: ΔTm PRD25N [8, 10]: 3.1 °C; Tm PRD25N ([8]; twofold molar excess of inhibitor, unliganded PRD25N 58.4): 61.5 °C; ΔTm PR [9, 10]: 22.4 °C; Tm PR ([9]; twofold molar excess of inhibitor, unliganded PR 65.7): 88.1 °C; Ki (porcine pepsin [1]): 2140 nM; −TΔS of binding, PR [2]: -3.1 kcal/mol; Tm PRD29N [3]: 72.7 °C; Kd (porcine pepsin [5]): 1540 nM; difference in ΔG for binding to the two enzymes (PR and pepsin) (porcine pepsin [5]): 7200 kcal/mol; binding constant (KL) from curve fitting of ITC data, pepsin (porcine pepsin [5]): (6.5 ± 0.6) × 10^5 M; stoichiometry of binding to pepsin (porcine pepsin [5]; ITC): 0.90 ± 0.01; −TΔS of binding, pepsin (porcine pepsin [5]; ITC, pH 3, 28 °C): -2.0 kcal/mol

Q: Which inhibition at 16 µM (porcine pepsin [1]) does the source give for `CCC[C@@]1(CCc2ccccc2)CC(O)=C([C@H](CC)c2cccc(NS(=O)(=O)c3ccc(C(F)(F)F)cn3)c2)C(=O)O1` [TPV, Tipranavir] here?
A: ≤ 50%

Q: Which “Inhibition of pepsin” value (porcine pepsin [1]; 16 μM inhibitor) does the source give for `CC(C)(C)NC(=O)[C@@H]1CN(Cc2cccnc2)CCN1C[C@@H](O)C[C@@H](Cc1ccccc1)C(=O)N[C@H]1c2ccccc2C[C@H]1O` [INV, Indinavir] here?
A: undetected; also recorded: did not inhibit

From PMC2720045 (Proteins, 2009)
